These results are taken from paper PMC7724630, “Improving the Stability of EGFR Inhibitor Cobalt(III) Prodrugs” (Inorganic Chemistry, 2020).

The conditions of series [1]: cited from earlier work.
Series [2] can be described thus: Overall stability constants of binary and ternary cobalt(II) complexes by pH-potentiometry. The series is classed as physicochemical. The conditions noted are these: for fraction of ligand coordinated to cobalt(II): 1:2:1 cobalt(II)-acac-ligand system, computed from stability constants; for log β [Co(II)A2B]0 ternary complex / log β [Co(II)AB2]+ ternary complex / log β [Co(II)AB]+ ternary complex: A = acac, B = MeEn or PhEn. How it is done: Following the determination of the stability constants for the binary complexes (Table 2), overall stability constants for the mixed-ligand complexes formed in the cobalt(II)–acac–MeEn and cobalt(II)–acac–PhEn ternary systems were calculated on the basis of pH-potentiometric titrations. Three types of complexes were formed, [CoAB]^+, [CoA2B], and [CoAB2]^+, where “A” denotes acac and “B” refers to MeEn or PhEn. Concentration distribution curves in Figure 5 were computed using the stability constants of the 1:2:1 cobalt(II)–acac–PhEn composition that corresponds to the reduced form of Co(II)(acac)2L^0. […] For the 1:2:1 cobalt(II)–acac–MeEn system, ∼11% are still coordinated to cobalt(II) at pH 7.4 (Figure S6). However, it has to be mentioned that these calculations were performed for 1 mM cobalt(II) (where the titrations were performed), and the amount of the intact ternary complex further decreases with lower concentrations [e.g., in the latter system at pH 7.4 and 0.1 mM cobalt(II), the coordinated MeEn fraction is only ∼2%].
(§1) For determination of the proton dissociation (Ka) and formation constants (β) pH-potentiometric measurements were carried out at 25 ± 0.1 °C and an ionic strength (I) of 0.10 M (KCl) to keep the activity coefficients constant. A carbonate-free KOH solution (0.10 M) was used for titrations. The exact concentrations of HCl and KOH were determined by pH-potentiometric titrations. A Metrohm-combined electrode (type 6.0234.100) connected to an Orion 710A pH-meter and a computer-controlled Methrom 665 Dosimat buret (increment, 1 μL; precision, 2 μL) were used for the pH-potentiometric measurements. […] The determined average water ionization constant (pKw = 13.76 ± 0.01) corresponds well to the literature data.[37] Titration points included in the calculations gave a reproducibility within 0.005 pH unit. Titrations were performed in the pH range of 2.0–11.5, and the initial volume of the samples was 10 mL. Binary systems contained 1 or 2 mM ligand, and metal:ligand ratios of 1:1, 1:2, 1:3, and 1:4 were used. In the ternary systems, the cobalt(II) concentration was 1 mM and the two types of ligands (A, acac, and B, MeEn, or PhEn) were varied as follows: 1:1:1, 1:2:1, 1:1:2, and 1:2:2 Co(II):A:B. The samples were degassed by bubbling purified argon through them for 10 min prior to the measurements, and argon was also passed over the solutions during the titrations.
The stoichiometry of the complexes and overall stability constants were established by the computer program Hyperquad2013.[53] For the general equilibrium β(MpLqHr) is defined as [drawing 2] 1 where M denotes the cobalt(II) ion and L the completely deprotonated ligand. The calculations were performed as reported in our previous work.[54]

Series [3] in a line: Proton dissociation constants by pH-potentiometric titration. As to conditions: pH-potentiometry, 25.0 °C, I = 0.1 M (KCl). Format: physicochemical.
Excerpt: After reductive activation of the cobalt(III) prodrugs, it is essential to investigate whether the formed cobalt(II) complexes indeed can release the coordinated targeting ligand. For this reason, we selected two ternary systems as models to study the potential liberation of the (N,N) ligand from the mixed-ligand cobalt complex upon reduction. Thus, the aqueous stability of several cobalt(II) complexes was investigated under strictly anaerobic conditions. Due to the limited water solubility of cobalt(II) chloride complexes with L, model ligands with better solubility, namely, MeEn and PhEn, were used. First, deprotonation processes of the acetlyacetone (Hacac) and the fully protonated MeEn and PhEn ligands were followed at pH 2.0–11.5 (Table 2).
as §1

The conditions of series [4]: I = 0.1 M NaClO4; cited from earlier work.
Series [5] can be described thus: Cyclic voltammetry, cathodic peak potential Co(III)/Co(II). Format: physicochemical. The conditions noted are these: 10 mM phosphate buffer pH 7.40, 0.1 M KCl, scan rate 30 mV/s, 1.5 mM complex. How it is done: As the reduction process is crucial for the activation of cobalt(III)-based prodrug systems, the redox properties of the complexes were investigated to elucidate the effects of ligand methylation at different positions. Cyclic voltammetry measurements were performed in aqueous solution at pH 7.40 (10 mM phosphate buffer with 0.1 M KCl). […] Also, at a much higher scan speed of 1000 mV/s, the redox processes were still completely irreversible (Figure S5).
The compounds were dissolved in 10 mM phosphate buffer (pH 7.40), with 0.1 M KCl as the supporting electrolyte, to obtain a final concentration of 1.5 mM. Electrochemical experiments were conducted on an EG&G PARC 273A potentiostat/galvanostat with scan rates of 30 and 1000 mV/s at room temperature. Argon was bubbled through the solution before every measurement to remove oxygen. A three-electrode configuration cell was used with a glassy carbon electrode as the working electrode, which was polished before every measurement. The reference electrode was Ag/AgCl/KCl (3.5 M), and the auxiliary electrode was a platinum wire. Electrodes were conditioned regularly in 1 M H2SO4 for 5–10 cycles between voltage limits of −1.0 and 1.0 V at a scan rate of 100 mV/s. The system was calibrated with 1.5 mM K3[Fe(CN)6] for every experiment. Redox potentials measured relative to the Ag/AgCl/KCl (3.5 M) reference electrode were converted for potentials against NHE by the addition of 0.205 V. Measurements were repeated at least three times, and the mean values were calculated.

A further series concerns A431 cancer cells. In words: MTT-based cytotoxicity assay under different O2 levels. Format: cell-based, Human. The conditions noted are these: A431, 72 h.
In series [6] the test system is EGFR phosphorylation at position Y1068 and ERK 1/2 in A431 cells. In words: Western blot of EGFR signaling (pEGFR Y1068, pERK 1/2) after EGF stimulation. The series is classed as cell-based, Human. The conditions noted are these: A431 serum-starved, 2 h drug, EGF 50 ng/mL 10 min, normoxic. Background: In western blotting, separated proteins are transferred to a membrane and probed.

Where [7] appears, read: 25.0 °C, I = 0.1 M (KCl), anaerobic.
Where [8] appears, read: pH 7.0, NAD+/NADH or GSSG/GSH couple.

“And” between values parts separate entries of the source, which are not always exact repeats. Equal values may be shown once. Read-outs that look alike come from different tables or passages of the source. Marks after values point to notes of the source that are not given here.

A word on the pKa: it is the negative logarithm of the acid dissociation constant. For orientation: IC50 means the concentration that inhibits the measured activity by half.

`O=C1O[C@H]([C@@H](O)CO)C(O)=C1O` [AA, ascorbic acid]: in series [1], the “formal potential, higher values suggested by recent literature” value is given as 0.35–0.50 V. Moreover, the formal potential in series [1] (dehydro-L-ascorbate/AA at pH 7.0) was 0.06 V.

As to `CC(=O)CC(C)=O` [acac, acetylacetone], in series [2] (setting [7]), the “log β [Co(II)L2] binary complex” value is recorded as 8.66 ± 0.05 ^b and the “log β [Co(II)L] binary complex” value is 5.05 ± 0.02 ^b. Moreover, the pKa1 in series [3] is on record as 8.80 ± 0.01 ^b. The pKa in series [4] is reported as 8.82.

Turning to “Bis(3-methyl-2,4-pentanedionato) (Methyl-1,2-ethanediamine) Cobalt(III) Hexafluorophosphate [Co(Meacac)2MeEn^+]”, in series [5], the “cathodic peak potential (Ec) vs NHE” value is -200 mV.

Regarding `NC(=O)C1=CN([C@@H]2O[C@H](COP(=O)(O)OP(=O)(O)OC[C@H]3O[C@@H](n4cnc5c(N)ncnc54)[C@H](O)[C@@H]3O)[C@@H](O)[C@H]2O)C=CC1` [NADH, reduced nicotinamide adenine dinucleotide], the formal potential in series [1] (setting [8]) is −0.32 V.

Regarding `NCCNc1ccccc1` [PhEn, N-phenylethylenediamine], the “fraction of ligand coordinated to cobalt(II)” value (from here on “fraction of ligand coordinated”) in series [2] (pH 7.4, 1 mM cobalt(II)) is on record as below 1%. Also, in series [2] (setting [7]), the “log β [Co(II)L2] binary complex” value is 6.75 ± 0.09 and the “log β [Co(II)L] binary complex” value worked out at 3.63 ± 0.05. Further, in series [2] (25.0 °C, I = 0.1 M (KCl)), the “log β [Co(II)A2B]0 ternary complex” value is given as 12.08 ± 0.09, the “log β [Co(II)AB2]+ ternary complex” value is recorded as 11.29 ± 0.13 and the “log β [Co(II)AB]+ ternary complex” value came out at 8.03 ± 0.15. Moreover, in series [3], the pKa1 was 1.85 ± 0.01 ^c and the pKa2 is listed as 9.34 ± 0.01 ^c.

For `CNCCN` [MeEn, N-methylethylenediamine], the “fraction of ligand coordinated” value in series [2] (pH 7.4, 0.1 mM cobalt(II)) is on record as around 2%. The “fraction of ligand coordinated” value in series [2] (pH 7.4, 1 mM cobalt(II)) is reported as around 11%. In series [2] (setting [7]), the “log β [Co(II)L2] binary complex” value came out at 9.15 ± 0.02, the “log β [Co(II)L3] binary complex” value is reported as 12.94 ± 0.04 and the “log β [Co(II)L] binary complex” value is listed as 5.26 ± 0.01. Further, in series [2] (25.0 °C, I = 0.1 M (KCl)), the “log β [Co(II)A2B]0 ternary complex” value stood at 12.73 ± 0.09, the “log β [Co(II)AB2]+ ternary complex” value is recorded as 13.20 ± 0.12 and the “log β [Co(II)AB]+ ternary complex” value is 9.82 ± 0.05. In series [3], this compound registered a pKa1 of 7.04 ± 0.02 and a pKa2 of 9.98 ± 0.01.

As to “Bis(2,4-pentanedionato) (Methyl-1,2-ethanediamine) Cobalt(III) Hexafluorophosphate [Co(acac)2MeEn^+]”, the “cathodic peak potential (Ec) vs NHE” value in series [5] is given as -152 mV.

As to `C#Cc1cccc(Nc2ncnc3cc(OCCOC)c(OCCOC)cc23)c1` [erlotinib, reference compound], the IC50 is 14.4 ± 4 µM in the series on A431 cancer cells (Homo sapiens, A-431, 1% O2, read-out: IC50 hypoxia with 1% O2) and 13.3 ± 4.7 µM in the series with A431 cancer cells (Homo sapiens, A-431, 21% O2, read-out: IC50 normoxia).

For `CC(=O)[C-](C)C(C)=O.CC(=O)[C-](C)C(C)=O.CNCCNc1ccc2ncnc(Nc3cccc(Br)c3)c2c1.[Cl-].[Co+3]` [Co(Meacac)2MeL^+, Bis(3-methyl-2,4-pentanedionato) N^4-(3-Bromophenyl)-N^6-[2-(methylamino)ethyl]quinazoline-4,6-diamine Cobalt(III) Chloride], in series [6], the “EGFR-inhibitory potential (pEGFR, pERK 1/2)” value is “distinctly weakened EGFR-inhibitory potential”. In series [5], the “cathodic peak potential (Ec) vs NHE” value stood at 17 mV. Further, the “increase in cytotoxicity at 0.1% O2 compared to normoxic conditions” value in the series on A431 cancer cells is reported as 2.9 fold. For the same compound, the concentration for half-maximal inhibition (IC50) with A431 cancer cells (0.1% O2, read-out: IC50 hypoxia with 0.1% O2) was 19.9 ± 1 µM; in the series with A431 cancer cells (1% O2, read-out: IC50 hypoxia with 1% O2), ~32 µM and 32 µM; in the series on A431 cancer cells (5% O2, read-out: IC50 hypoxia with 5% O2) it was 55.2 ± 1.4 µM; in the series on A431 cancer cells (21% O2, read-out: IC50 normoxia) it was 58.6 ± 4.4 µM.

As for `N[C@@H](CCC(=O)N[C@@H](CS)C(=O)NCC(=O)O)C(=O)O` [GSH, Glutathione], the formal potential in series [1] (setting [8]) is given as −0.24 V.
